Assay [1] relates to cumulus-oocyte complexes (cumulus expansion). Kind of assay: cumulus expansion assay in vitro. It is filed as cell-based, mice. As for the experimental part: Folliculogenesis is induced in immature female mice (strain: CD1 (ICR) from Charles River) at an age of 14-18 days by a single dose (intraperitoneal) of 10 I.U. of PMSG (Pregnant Mare Serum Gonadotropine; Sigma G-4877, Lot 68H0909). 47-50 hours after the injection, the ovaries are removed and the cumulus-oocyte complexes are removed. The cumulus complex is not yet expanded at this stage.
The cumulus-oocyte complexes are then incubated with prostaglandin E2 (PGE2) (0.3 μM), vehicle control (ethanol) or test substances for 20-24 hours. Medium: alpha-MEM medium with 0.1 mM IBMX, pyruvates (0.23 mM) glutamines (2 mM), pen/strep 100 IU/ml pen. and 100 μg/ml strep.) and HSA (8 mg/ml)). Cumulus expansion is then established through the division into four stages (according to Vanderhyden et al. Dev Biol. 1990 August; 140 (2):307-317).

The target in assay [2] is T1, human prostaglandin E2 (subtype EP2) receptor (Homo sapiens, UniProt P43116).
T1 construct: host or cells: cells in a culture plate
T1 sequence (P43116 whole entry): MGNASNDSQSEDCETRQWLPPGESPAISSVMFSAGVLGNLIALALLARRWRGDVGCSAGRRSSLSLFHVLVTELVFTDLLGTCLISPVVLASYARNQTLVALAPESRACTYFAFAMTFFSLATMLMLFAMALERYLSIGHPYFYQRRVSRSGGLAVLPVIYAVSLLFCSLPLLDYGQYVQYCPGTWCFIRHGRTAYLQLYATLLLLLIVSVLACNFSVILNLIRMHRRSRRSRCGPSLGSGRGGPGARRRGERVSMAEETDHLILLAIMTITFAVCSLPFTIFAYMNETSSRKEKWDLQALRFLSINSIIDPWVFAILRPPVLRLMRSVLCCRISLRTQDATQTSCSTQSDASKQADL
Nature of the assay: cAMP antagonism assay. Particulars: in the presence of PGE2. It is filed as cell-based. The protocol:
(§1) The binding of PGE2 to the EP2 subtype of the human PGE2 receptor induces activation of membrane-associated adenylate cyclases and leads to the formation of cAMP. In the presence of the phosphodiesterase inhibitor IBMX, cAMP which has accumulated due to this stimulation and been released by cell lysis is employed in a competitive detection method. In this assay, the cAMP in the lysate competes with cAMP-XL665 for binding of an Eu cryptate-labelled anti-cAMP antibody.
(§2) The two signals are measured in a suitable measuring instrument with a time lag, i.e. after the background fluorescence has declined.
(§3) The substance solutions (0.75 μl) introduced into an assay plate and 30% DMSO are dissolved in 16 μl of a KRSB+IBMX stimulation solution (1× Krebs-Ringer Bicarbonate Buffer; Sigma-Aldrich # K-4002; including 750 μM 3-isobutyl-1-methylxanthine Sigma-Aldrich # I-7018), and then 15 μl thereof are transferred into a media-free cell culture plate which has been washed with KRSB shortly beforehand.
After preincubation at room temperature (RT) for 30 minutes, 5 μl of a 4×PGE2 solution (11 nM) are added, and incubation is carried out in the presence of the agonist at RT for a further 60 min (volume: ˜20 μl) before the reaction is then stopped by adding 5 μl of lysis buffer and incubated at RT for a further 20 min (volume: ˜25 μl). The cell lysate is then transferred into a measuring plate and measured in accordance with the manufacturer's information (cyclic AMP kit Cisbio International #62AMPPEC).

The target of assay [3] is T1, human prostaglandin E2 (subtype EP2) receptor. Kind of assay: cellular cAMP agonism assay. It is filed as cell-based. The protocol: as §1, §2, §3
After incubation at room temperature (RT; volume: ˜15 μl) for 60 minutes, the reaction is then stopped by adding 5 μl of lysis buffer and incubated at RT for a further 20 min (volume: ˜20 μl). The cell lysate is then transferred into a measuring plate and measured in accordance with the manufacturer's information (cyclic AMP kit Cisbio International #62AMPPEC).

The term IC50 denotes the point on the concentration scale where inhibition reaches its midpoint.

Turning to `CC(C)Oc1ccc2c(=O)c3cc(C(=O)O)ccc3oc2c1` [AH 6809, reference compound], in assay [1] (concentration 100-200 μM, competing with the natural EP2 receptor agonist PGE2), the “inhibition of cumulus expansion” value was roughly 30%.

As for `COc1ccc(OCC(=O)NCCc2c(C)[nH]c3c(F)ccc(C)c23)cc1` [Example 1, N-[2-(7-Fluoro-2,4-dimethyl-1H-indol-3-yl)ethyl]2-(4-methoxyphenoxy)acetamide], the IC50 in assay [2] stood at 1100 nM.

Turning to `Cc1[nH]c2c(F)ccc(C)c2c1CCNC(=O)COc1ccccc1` [Example 5, N-[2-(7-Fluoro-2,4-dimethyl-1H-indol-3-yl)-ethyl]-2-phenoxy-acetamide], the IC50 in assay [2] came out at 2700 nM. On to `Cc1[nH]c2c(F)ccc(C)c2c1CCNC(=O)COc1ccc(Cl)cc1` [Example 6, 2-(4-Chlorophenoxy)-N-[2-(7-fluoro-2,4-dimethyl-1H-indol-3-yl)ethyl]-acetamide], for which the “inhibition of cumulus expansion” value in assay [1] (concentration 10 μM (10 to 20 times lower than AH 6809), competing with PGE2) stood at 30%. In assay [3], the “effect in the cellular agonism test” value is “no inhibition”. Also, in assay [2], the IC50 is 1300 nM.

Source of the values: patent publication US20090042882A1, “SUBSTITUTED ACETAMIDES AS MODULATORS OF THE EP2 RECEPTOR” (priority 2007, published 2009).
